Measured values published in PubChem BioAssay AID179 (DTP/NCI, 2004).
Active and inactive are the calls of the source.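 Rule for the calls: active = compounds giving half or more protection of infected cells from virus-caused growth loss, again on retest; inactive = the rest.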

Tested on: CEM cells HIV-1 protection, formazan growth assay
Experiment: NCI AIDS Antiviral Assay
Conditions: for IC50: measured here: growth of uninfected CEM cells
Outline: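 Soluble formazan readout of cell growth; CEM cells ± HIV-1; 5 drug concs. ≥50% protection → retest; ≥50% again = moderately active; reproducible 100% = confirmed active.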

Structure (SMILES) | EC50 | IC50 | outcome
COc1cc(C2C(C#N)=C(N)OC3=C2CCS(=O)(=O)c2ccc(C)cc23)cc(OC)c1OC (stereo unspecified) | > 200 µM | > 200 µM | 
CCN(CC)c1ccc(N=Nc2ccc(-c3nc4cccn(C)c-4n3)cc2)cc1 | > 7.41 µM | > 7.41 µM | 
CNC(=O)OCc1cnc([N+](=O)[O-])n1C | > 200 µM | > 200 µM | 
N#Cc1nc(C2=C(Cl)c3ccccc3OC2)[nH]c1C#N |  |  | inactive
COc1cc2c(cc1OC)C(CSC)Cc1cc(OC)c(OC)cc1N(C)CCC2 (stereo unspecified) | > 31.6 µM | > 31.6 µM | 
COC(=O)C1=C(C(=O)OC)SC(=C(N=Nc2ccccc2)c2ccccc2)S1 |  |  | inactive
Cc1c(N=Nc2ccc(Cl)cc2)c(C)n(C2OC(CO)C(O)C(O)C2O)c(=S)c1C#N (stereo unspecified) | > 200 µM | 34.7 µM | 
N#CC(NNC(=O)c1ccccc1O)c1ccccc1O (stereo unspecified) | > 91.2 µM | 1.58 µM | 
CCCCCCC(/C=N/O)C(C)(O)CCC (stereo unspecified) | > 112 µM | > 112 µM | 
[O]=[Bi](=[O])[O]CC(O)CO (stereo unspecified) | > 4.37 µM | > 4.37 µM | 
CCOC(=O)/C(=C\N1C(=O)/C(=C\C(C)=C\c2ccccc2)SC1=S)C(=O)c1ccccc1 | 11 µM | 13.5 µM | 
Cc1cccc(/C=N/NC(=S)N(C)CCc2ccccn2)n1 | > 2 µM | 0.0331 µM | 
COc1cc(/C=C/C(=O)CC(=O)/C=C/c2ccc(O)cc2)ccc1O | > 200 µM | 11.7 µM | 
Cc1nn2c(=O)c([N+](=O)[O-])c(/C=C/c3ccc(F)cc3)nc2s1 | > 200 µM | 5.25 µM | 
CN=C(Nc1ccc(OC)c2ccccc12)SC | > 200 µM | > 100 µM | 
Nc1nc2c(c(=O)[nH]1)N=C(COP(=O)(O)OP(=O)(O)O)CN2 | > 200 µM | 145 µM | 
O=c1[nH]c(=O)n(C2CC(F)C(CO)O2)cc1CO (stereo unspecified) | > 479 µM | 186 µM | 
C/C=C/C(=O)[C@@H](O)C(C)(C)C |  |  | inactive
Cc1ccc(Nc2c3c(c(C#N)c4nc5ccccc5n24)CCCC3)cc1 | > 200 µM | 10.7 µM | 
C=CC(=O)c1ccc2c(c1)OCCOCCOCCOCCOCCO2 | > 676 µM | 7.08 µM | 
Cc1nc(Nc2ccccc2Cl)c2ccsc2n1 |  |  | inactive
N#CCc1nc(-c2cc3ccc(O)cc3oc2=O)cs1 | > 200 µM | 26.9 µM | 

Structure (SMILES) | EC50 | IC50 | outcome
Cc1cn(C2C/C(=C\C#N)C(CO[Si](C)(C)C(C)(C)C)O2)c(=O)[nH]c1=O (stereo unspecified) | > 200 µM | 182 µM | 
CC12CCC[C@@](C)(C(=O)O)[C@H]1CCC1=CC3(CCC12)SCCS3 (stereo partly specified) | > 355 µM | 57.5 µM | 
CC1(C)OC(=C(C#N)C#N)C(C#N)=C1/C=C/c1ccncc1 | > 151 µM | 0.813 µM | 
O=P(O)(O)OP(=O)(O)O | 182 µM | > 200 µM | 
CC1C2CC(CC(=O)N2)C1(C)C (stereo unspecified) | > 1480 µM | 759 µM | 
Oc1cc(O)c2c(c1)O[C@@H](c1ccc(O)c(O)c1)[C@H](O)C2 | > 200 µM | > 200 µM | 
O=C(NC(=Nc1ccccc1)SCCSC(=Nc1ccccc1)NC(=O)c1ccccc1)c1ccccc1 | > 18.6 µM | > 18.6 µM | 
NC(Cc1ccc(OCc2ccccc2)cc1)C(=O)NC(Cc1ccccc1)C(=O)Oc1c(Cl)c(Cl)c(Cl)c(Cl)c1Cl (stereo unspecified) | > 200 µM | 28.8 µM | 
OCC1OC(NC(=S)NCSCCC(F)(F)C(F)(F)C(F)(F)C(F)(F)C(F)(F)C(F)(F)F)C(O)C(O)C1O (stereo unspecified) | > 200 µM | 7.24 µM | 
COCC1OC2(CCC[C@@H]2O)O[C@H]1COC (stereo partly specified) |  |  | inactive
CC1CCCCC12NC(=O)NC2=O (stereo unspecified) | > 200 µM | > 200 µM | 
COC(=O)c1cc(Cc2cc(C)c(OC)c(C(=O)OC)c2)cc(C)c1OC | > 200 µM | 14.5 µM | 
O=C(O/N=C1/CCC/C1=C\c1ccccc1)c1ccc(Cl)c(Cl)c1 |  |  | inactive
CCOC(=O)C1Cc2ccc(OC)cc2C2=CC(=O)CCC21 (stereo unspecified) | > 166 µM | > 166 µM | 
Clc1ccccc1C(=Nc1ccccc1)C(=Nc1ccccc1)c1ccccc1Cl | > 1.74 µM | > 1.74 µM | 
Nc1c(Cl)ncnc1NCCCNc1ncnc(Cl)c1N |  |  | inactive
Cn1c(=O)c2c(nc(NCCCCl)n2CC(=O)O)n(C)c1=O | > 200 µM | > 200 µM | 
Nc1ncnc2c1sc1nc3ccccc3n12 | > 200 µM | > 200 µM | 
Cn1c(COc2ccc(/C=N/NC(=O)c3cccc(C(=O)N/N=C/c4ccc(OCc5c[n+]6ccccc6n5C)cc4)c3)cc2)c[n+]2ccccc12 | > 6.92 µM | > 6.92 µM | 
Cc1c(C(=O)CSc2nc3ccccc3c(=O)n2-c2ccccc2)c(=O)n(-c2ccccc2)n1C | > 5.62 µM | > 5.62 µM | 
COc1ccc2c(c1)C(=O)CC1c3cnccc3C(=O)N21 (stereo unspecified) | > 200 µM | 115 µM | 
CCOC(=O)/C(C#N)=N\Nc1ccc(-n2c(C)nc3ccccc3c2=O)cc1 | > 200 µM | 89.1 µM | 

Structure (SMILES) | EC50 | IC50 | outcome
CCOC(=O)c1ccc(N2CN3c4ccccc4CCC3C2c2c[nH]c(=O)[nH]c2=O)cc1 (stereo unspecified) | > 69.2 µM | > 69.2 µM | 
Brc1ccccc1C1SCc2nc3ccccc3n21 (stereo unspecified) |  |  | inactive
COC(CN1CCOCCOCCOCC1)CN1CCOCCOCCOCC1 | > 2510 µM | > 2510 µM | 
CC1(C)C2CCC1(C)C(Cl)([N+](=O)[O-])C2 (stereo unspecified) |  |  | inactive
CC(=O)OC1CC2C(C)(C)C(=O)C=C[C@]2(C)C2CCC3(C)C(c4ccoc4)OC(=O)[C@H]4O[C@]43[C@]12C (stereo partly specified) |  |  | inactive
C[C@@]12CCC[C@@H](OC(=O)c3ccc(Br)cc3)[C@@H](C1)C(=O)CC2 |  |  | inactive
COc1ccc([N+](=O)[O-])c2c(NCCC[N+](C)(C)[O-])c3ccccc3nc12 | > 200 µM | 3.09 µM | 
CCOC(=O)n1[nH]c(=O)n(-c2ccccc2)c1=O | > 200 µM | > 200 µM | 
CC(=O)[CH-]C(C)=O.CC(=O)[CH-]C(C)=O.[CH2-]CCCCCCC.[CH2-]CCCCCCC.[Sn+4] | > 47.9 µM | > 47.9 µM | 
CCCCN(CCCC)NC(=S)Nc1ccccc1 | > 35.5 µM | > 35.5 µM | 
O=c1oc2ccccc2c(O)c1C(c1ccc(O)cc1)c1c(O)c2ccccc2oc1=O |  |  | inactive
Cc1cn2cc(-c3ccncc3)nc2s1 | > 209 µM | 112 µM | 
CC1(C)c2ccccc2C(=O)C1(Br)Cc1ccccc1 (stereo unspecified) | > 200 µM | 9.55 µM | 
CCCCNC(=S)OCCC(C)CCCC(C)C (stereo unspecified) |  |  | inactive
C=C1C(O)C2(O)OCC34C(CC5C(C)=CC(=O)C(O)C5(C)C23)OC(=O)C(OC(=O)C/C=C(\C)CCCCC)C14 (stereo unspecified) | > 47.9 µM | 0.0151 µM | 
C[C@H]1CC[C@@H]2[C@@H](C)[C@H]3[C@H](C[C@H]4[C@@H]5CC=C6C[C@@H](O)CC[C@]6(C)[C@H]5C[C@H](O)[C@]34C)N2C1 |  |  | inactive
CC(C)(O)/C=C\P(=O)(O)O | > 200 µM | > 200 µM | 
Cc1nn2c(=O)c([N+](=O)[O-])c(/C=C/c3ccco3)nc2s1 | > 200 µM | 45.7 µM | 
COc1ccc(-c2nc(-c3cnccn3)n(C/C=C/c3ccccc3)n2)cc1 | 64.6 µM | > 200 µM | 
N#Cc1ncn(CCO)c1N | > 200 µM | > 200 µM | 
C=CC(C)(CC/C=C(\C)CCC=C(C)C)c1cc(O)c(O)c(-c2cc(C(C)(C=C)CC/C=C(\C)CCC=C(C)C)cc(O)c2O)c1 (stereo unspecified) | > 5.75 µM | > 5.75 µM | 
